According to PMC4749168, “Potentiation of ΔF508- and G551D-CFTR-Mediated Cl^- Current by Novel Hydroxypyrazolines” (PLoS ONE, 2016):

Tests used:
WT-CFTR [1] = molecular target: T1, WT-CFTR (Homo sapiens, UniProt P13569); test: Halide-sensitive YFP microplate reader assay of CFTR potentiation, WT-CFTR; format: cell-based; conditions: FRT cells, 0.1 μM forskolin
T1 construct: expressed in transfected cells; host or cells: Fisher rat thyroid (FRT) cells, co-expressing halide sensor YFP-H148Q/I152L; provided by Dr. Alan Verkman
Method: (§1) FRT cells expressing wild type- or ΔF508-CFTR with the halide sensor YFP-H148Q/I152L were plated in 96-well black-walled microplates (Corning Inc., Corning, NY) at a density of 2 x10^4cells per well. FRT-WT-CFTR-YFP cells were incubated for 48 h at 37°C, and FRT-ΔF508-CFTR-YFP cells were incubated for 24 h at 27°C after 24 h incubation at 37°C to rescue ΔF508-CFTR localization. Assays were done using FLUO star Omega microplate reader (BMG Labtech, Ortenberg, Germany) and MARS Data Analysis Software (BMG Labtech). Each well of a 96-well plate was washed 3 times in PBS (200 μL/wash). 100 μL PBS was added to each well. Forskolin (0.1 and 10 μM for WT- and ΔF508-CFTR, respectively) and test compounds (1 μL) were added to each well. After 10 min, 96-well plates were transferred to the microplate reader preheated to 37°C for fluorescence assay. Each well was assayed individually for CFTR-mediated I^- influx by recording fluorescence continuously (200 ms per point) for 2 s (baseline), then 100 μL of 140 mM I^- solution was added at 2 s and then YFP fluorescence was recorded for 14 s. Initial iodide influx rate was determined from the initial slope of fluorescence decrease, by nonlinear regression, following infusion of iodide.

ΔF508-CFTR [2] = molecular target: T2, ΔF508-CFTR (Homo sapiens, UniProt P13569, DEL508-508); test: Immunoblot of ΔF508-CFTR band C/B in A549-ΔF508-CFTR cells; format: cell-based; parameters: expressed in transfected cells; conditions: 48 h, combined with 5 μM VX-809, 10 μM CP7q, vs VX-809 alone
T2 sequence (P13569 with tags, fused parts or gaps DEL508-508): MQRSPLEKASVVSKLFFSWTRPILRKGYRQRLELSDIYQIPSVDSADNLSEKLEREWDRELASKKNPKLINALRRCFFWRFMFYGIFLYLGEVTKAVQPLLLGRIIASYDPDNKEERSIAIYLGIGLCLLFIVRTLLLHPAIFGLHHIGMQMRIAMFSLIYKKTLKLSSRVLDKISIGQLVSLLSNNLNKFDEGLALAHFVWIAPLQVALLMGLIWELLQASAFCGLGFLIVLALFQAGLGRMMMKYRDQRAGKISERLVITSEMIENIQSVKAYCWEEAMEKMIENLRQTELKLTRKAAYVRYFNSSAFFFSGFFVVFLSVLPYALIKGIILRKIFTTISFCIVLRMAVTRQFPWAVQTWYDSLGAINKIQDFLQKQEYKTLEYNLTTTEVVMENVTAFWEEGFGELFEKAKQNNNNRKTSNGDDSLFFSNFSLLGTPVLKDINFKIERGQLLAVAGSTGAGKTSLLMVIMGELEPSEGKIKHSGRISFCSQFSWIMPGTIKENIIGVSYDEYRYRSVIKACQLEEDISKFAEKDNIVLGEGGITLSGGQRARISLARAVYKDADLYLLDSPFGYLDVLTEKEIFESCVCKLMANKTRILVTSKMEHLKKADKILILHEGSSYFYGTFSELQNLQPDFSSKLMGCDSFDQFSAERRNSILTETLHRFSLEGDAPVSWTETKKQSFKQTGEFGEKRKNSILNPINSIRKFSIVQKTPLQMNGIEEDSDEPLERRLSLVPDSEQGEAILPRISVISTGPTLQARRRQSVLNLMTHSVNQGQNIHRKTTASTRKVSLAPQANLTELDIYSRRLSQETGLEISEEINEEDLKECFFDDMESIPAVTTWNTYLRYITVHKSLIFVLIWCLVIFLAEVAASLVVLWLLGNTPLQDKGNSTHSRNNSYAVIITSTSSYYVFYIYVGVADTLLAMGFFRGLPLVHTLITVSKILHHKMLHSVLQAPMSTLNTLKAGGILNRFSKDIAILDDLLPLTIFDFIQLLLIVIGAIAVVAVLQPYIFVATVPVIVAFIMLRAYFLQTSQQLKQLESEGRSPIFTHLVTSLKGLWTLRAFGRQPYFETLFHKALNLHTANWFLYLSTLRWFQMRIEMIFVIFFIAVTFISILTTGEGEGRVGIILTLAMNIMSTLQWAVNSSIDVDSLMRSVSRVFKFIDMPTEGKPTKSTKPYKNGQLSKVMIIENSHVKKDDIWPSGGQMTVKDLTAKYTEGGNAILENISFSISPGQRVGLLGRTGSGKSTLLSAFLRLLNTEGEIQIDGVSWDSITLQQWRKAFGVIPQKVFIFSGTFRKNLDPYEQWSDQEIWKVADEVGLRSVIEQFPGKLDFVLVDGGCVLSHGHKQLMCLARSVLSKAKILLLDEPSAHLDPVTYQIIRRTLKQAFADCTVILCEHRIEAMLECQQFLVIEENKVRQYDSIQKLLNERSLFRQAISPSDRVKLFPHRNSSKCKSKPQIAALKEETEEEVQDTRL
Method: A549 cells stably expressing ΔF508-CFTR were lysed with cell lysis buffer (50 mM Tris-HCl, pH 7.4, 1% Nonidet P-40, 0.25% sodium deoxycholate, 150 mM NaCl, 1 mM EDTA, 1 mM Na3VO4, and protease inhibitor mixture). Whole cell lysates were centrifuged at 15,000 g for 10 min at 4°C to remove the cell debris, and equal amounts (80 μg protein/lane) of supernatant protein were separated by 4–12% Tris-glycine precast gel (KOMA BIOTECH, Seoul, Korea) and then transferred onto PVDF membrane (Millipore, Billerica, MA). Membrane was blocked with 5% non-fat skim milk in PBS including 0.05% Tween 20 for 1 hour at room temperature. This membrane was then incubated overnight with primary CFTR antibody (M3A7, Millipore, Billerica, MA). After washing with 0.05% Tween 20 in PBS (PBST), the blot was further incubated for 45 min at room temperature with an anti-mouse secondary antibody (Cell Signaling). The membrane was then washed three times with PBST for 5 minutes and then visualized using the ECL Plus western blotting detection system (GE Healthcare Amersham; Piscataway, NJ). The immunoblot results were analyzed quantitatively by ImageJ Software.

ΔF508-CFTR [3] = molecular target: T2, ΔF508-CFTR; test: Halide-sensitive YFP microplate reader assay of CFTR potentiation, ΔF508-CFTR; format: cell-based; parameters: expressed in transfected cells; host or cells: Fisher rat thyroid (FRT) cells, co-expressing halide sensor YFP-H148Q/I152L; provided by Dr. Alan Verkman; conditions: FRT cells rescued at 27°C, 10 μM forskolin
Method: as §1

G551D-CFTR = molecular target: T3, G551D-CFTR (Homo sapiens, UniProt P13569, G551D); test: Apical membrane current (Ussing chamber) in FRT cells expressing G551D-CFTR; format: cell-based
T3 construct: expressed in transfected cells; host or cells: Fisher rat thyroid (FRT) cells; provided by Dr. Alan Verkman
T3 sequence (P13569 whole entry G551D): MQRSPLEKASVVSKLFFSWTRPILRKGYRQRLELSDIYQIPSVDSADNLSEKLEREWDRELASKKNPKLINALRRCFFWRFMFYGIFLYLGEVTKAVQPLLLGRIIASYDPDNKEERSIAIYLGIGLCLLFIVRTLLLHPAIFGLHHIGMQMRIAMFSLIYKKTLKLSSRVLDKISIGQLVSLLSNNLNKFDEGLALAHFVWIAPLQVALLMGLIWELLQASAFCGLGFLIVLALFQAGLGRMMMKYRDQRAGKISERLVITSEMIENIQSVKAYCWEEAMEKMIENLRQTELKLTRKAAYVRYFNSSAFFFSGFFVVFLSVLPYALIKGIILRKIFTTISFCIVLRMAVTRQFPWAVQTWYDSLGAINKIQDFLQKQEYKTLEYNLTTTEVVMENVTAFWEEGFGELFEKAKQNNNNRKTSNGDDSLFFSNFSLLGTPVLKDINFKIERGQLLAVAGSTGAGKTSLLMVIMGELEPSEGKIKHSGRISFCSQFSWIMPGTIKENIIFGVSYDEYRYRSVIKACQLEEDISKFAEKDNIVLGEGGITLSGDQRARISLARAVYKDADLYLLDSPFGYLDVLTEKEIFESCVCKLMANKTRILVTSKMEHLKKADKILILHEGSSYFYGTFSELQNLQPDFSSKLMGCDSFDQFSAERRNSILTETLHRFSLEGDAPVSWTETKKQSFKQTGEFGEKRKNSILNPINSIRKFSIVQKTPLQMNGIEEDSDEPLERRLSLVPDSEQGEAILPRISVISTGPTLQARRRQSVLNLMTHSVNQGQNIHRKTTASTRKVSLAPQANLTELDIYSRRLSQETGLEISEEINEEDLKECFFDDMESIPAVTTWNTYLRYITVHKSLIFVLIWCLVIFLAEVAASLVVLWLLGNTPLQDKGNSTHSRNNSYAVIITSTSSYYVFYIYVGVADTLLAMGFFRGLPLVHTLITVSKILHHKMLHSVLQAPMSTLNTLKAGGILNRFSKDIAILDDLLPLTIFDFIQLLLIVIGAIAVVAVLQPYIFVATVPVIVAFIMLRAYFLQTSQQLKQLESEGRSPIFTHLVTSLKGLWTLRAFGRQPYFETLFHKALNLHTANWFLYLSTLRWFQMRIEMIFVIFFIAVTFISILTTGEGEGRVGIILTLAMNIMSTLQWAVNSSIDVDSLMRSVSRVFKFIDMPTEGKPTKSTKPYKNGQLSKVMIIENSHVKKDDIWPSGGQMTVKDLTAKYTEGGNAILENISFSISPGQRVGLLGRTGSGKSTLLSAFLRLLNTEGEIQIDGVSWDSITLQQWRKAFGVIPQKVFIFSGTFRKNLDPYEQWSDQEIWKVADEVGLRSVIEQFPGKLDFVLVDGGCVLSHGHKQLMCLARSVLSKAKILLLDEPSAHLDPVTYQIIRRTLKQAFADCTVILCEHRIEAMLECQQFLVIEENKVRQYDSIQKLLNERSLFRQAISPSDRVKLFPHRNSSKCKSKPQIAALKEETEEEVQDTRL
Method: Snapwell inserts containing CFTR-expressing FRT and primary culture of human nasal epithelial cells were mounted in Ussing chambers (Physiologic Instruments, San Diego, CA). […] For FRT cells, the apical bath was filled with a half-Cl^- solution and the basolateral bath was filled with HCO3^—buffered solution, and the basolateral membrane was permeabilized with 250 μg/mL amphotericin B. For primary cultures of human nasal epithelial cells, symmetrical HCO3^—buffered solutions were used and ENaC was inhibited by pre-treatment with amiloride (100 μM). […] Apical membrane current and short-circuit current were measured with an EVC4000 Multi-Channel V/I Clamp (World Precision Instruments, Sarasota, FL) and recorded using PowerLab 4/35 (AD Instruments, Castle Hill, Australia). Data were collected and analyzed with ADInstruments acquisition software Labchart Pro 7 software. The sampling rate was 4 Hz.

WT-CFTR [4] = molecular target: T1, WT-CFTR; test: Whole-cell patch-clamp in FRT cells expressing WT-CFTR; format: cell-based
Method: Whole-cell patch-clamp recordings were performed on WT- or ΔF508-CFTR-expressing FRT cells. The bath solution contained (in mM): 140 NMDG-Cl, 1 CaCl2, 1 MgCl2, 10 glucose and 10 HEPES (pH 7.4). The pipette solution contained (in mM): 130 CsCl, 0.5 EGTA, 1 MgCl2, 1 Tris-ATP, and 10 HEPES (pH 7.2). Pipettes were pulled from borosilicate glass and had resistances of 3–5 MΩ after fire polishing. Seal resistances were between 3 and 10 GΩ. After establishing the whole-cell configuration, CFTR was activated by forskolin and/or CP7q. Whole-cell currents were elicited by applying hyperpolarizing and depolarizing voltage pulses from a holding potential of 0 mV to potentials between -80 mV and +80 mV in steps of 20 mV. Recordings were made at room temperature using an Axopatch-200B (Axon Instruments). Currents were digitized and analyzed using a Digidata 1440A converter (Axon Instruments), and pCLAMP 10.2 software (Molecular Devices, Sunnyvale, CA). Currents were low-pass filtered at 1 kHz and sampled at 5 kHz

HT-29 cells = test: MTS cell viability assay; format: cell-based, human; conditions: 24 h, up to 10 μM
Method: HT-29 human colon adenocarcinoma cells were plated at a density of 1 x10^4 per cm^2on 96-well microplates. After 24 h incubation, cells were treated with hydroxypyrazolines and then incubated for 1 day. An equal amount of DMSO was added to the all control. The culture medium and the compounds were changed every 12 h. For MTS assay, the cells were reincubated with MTS for 1 hour. The soluble formazan produced by cellular reduction of MTS was quantified by measuring the absorbance at 490 nm with Infinite M200 (Tecan, Grödig, Austria) microplate reader. MTS assay was done using CellTiter 96® AQueous One Solution Cell Proliferation Assay kit (Promega, Madison, WI, USA).

## COc1ccc(C2CC(c3ccc(O)cc3O)=NN2c2ccc(S(N)(=O)=O)cc2)c(OC)c1 (stereo not shown) [Compound 7q, 4-[3-(2,4-dihydroxyphenyl)-5-(2,4-dimethoxyphenyl)-4,5-dihydro-1H-pyrazol-1-yl] benzenesulfonamide]
WT-CFTR [1]
  EC50: 0.9 µM
ΔF508-CFTR [2]
  Effect on ratio of band C to band B of ΔF508-CFTR: strongly increased
ΔF508-CFTR [3]
  EC50: 4.8 µM
G551D-CFTR; 20 μM forskolin, 30 μM CP7q vs 10 μM VX-770
  Potentiation of G551D-CFTR Cl- current compared with VX-770: comparable to VX-770
G551D-CFTR; 20 μM forskolin, 30 μM CP7q vs 50 μM genistein
  Potentiation of G551D-CFTR Cl- current relative to genistein: 1.9 times
G551D-CFTR; 20 μM forskolin, 50 μM genistein, 10 μM VX-770, CP7q
  Potentiation of G551D-CFTR Cl- current: significantly potentiated
G551D-CFTR; higher than genistein
  Maximal potentiation of G551D-CFTR chloride conductance relative to genistein: 1.9 fold
WT-CFTR [4]; 0.1 μM forskolin, 10 μM CP7q
  Potentiation of whole-cell WT-CFTR Cl- current: strongly potentiated
WT-CFTR [4]; whole cell patch-clamp, no forskolin
  Activation of WT-CFTR without forskolin stimulation: did not activate
HT-29 cells
  Cytotoxicity (cell viability, MTS): no cytotoxicity
